From PubChem BioAssay AID1996
In brackets after ≈: the same amount, converted by molar mass.

Conditions: buffer; pH 7.4; 200.0 µM

`COc1cccc(N2CCN(C(=O)c3ccc4nc[nH]c4c3)CC2)c1` and `O=C(NCC(=O)N1CCN(c2ccccc2O)CC1)c1ccccc1` are within 1.5-fold of each other in solubility kinetic: 48.6 µg/mL (≈ 144 µM) for the first, 49.4 µg/mL (≈ 146 µM) for the second.

`CCOCCc1c(O)[nH]c(=S)[nH]c1=O` and `CCOc1ccc(NC(=O)CCN2C(=S)NC(C)(C)CC2C)cc1` (stereo not given) cannot be ordered by solubility kinetic: over 32.4 µg/mL for the first, 41.5 µg/mL (≈ 119 µM) for the second.

Compared with `CCN(C(=O)c1ccc2c(c1)OCO2)C1CCS(=O)(=O)C1` (stereo not given), `CC(NC(=O)COC(=O)c1ccc2c(c1)OCO2)c1ccccc1` (stereo not given) is lower in solubility kinetic: over 46.7 µg/mL for the first, 14.9 µg/mL (≈ 45.5 µM) for the second.

`COc1ccc(C2=NOC(C(=O)Nc3cccnc3)C2)cc1OC` (stereo not given) and `COc1ccc(CN(CCC(c2ccco2)C(C)C)C(C)=O)cc1OC` (stereo not given) are within 1.5-fold of each other in solubility kinetic: 46.8 µg/mL (≈ 143 µM) for the first, 49.2 µg/mL (≈ 137 µM) for the second.

Going from `COc1cc2[nH]c(=S)n(C3CC3)c(=O)c2cc1OC` to `COc1ccc(C(=O)OCC(=O)NC2CCCCCCC2)cc1OC`, the solubility kinetic rises from 7.6 µg/mL (≈ 27.3 µM) to 29 µg/mL (≈ 83 µM) (3.8-fold).

Compared with `CCOc1ccc(-c2cn(-c3ccccc3OC)c(=S)[nH]2)cc1`, `CCOc1ccc(S(=O)(=O)/N=C(\N)c2ccccc2)cc1` is higher in solubility kinetic: 17.7 µg/mL (≈ 54.2 µM) for the first, over 45.7 µg/mL for the second.

Going from `Cc1cccc(-n2c(=S)[nH]c3nc4c(cc3c2=O)COC(C)(C)C4)c1` to `CC[n+]1c(C)n(-c2ccccc2)c2ccc(NC(C)=O)cc21.[I-]`, the solubility kinetic rises from 1.7 µg/mL (≈ 4.81 µM) to over 63.2 µg/mL.

Compared with `CC(C)(c1ccccc1)c1ccc(OCCN2CCCC2)cc1`, `COc1ccc(-c2cc(C(=O)NC3CCCC3)c3ccccc3n2)cc1` is 6.2-fold lower in solubility kinetic: 29.2 µg/mL (≈ 94.4 µM) for the first, 4.7 µg/mL (≈ 13.6 µM) for the second.

`COc1ccccc1NC(=O)N1CCOCC1` and `CC(NC(=O)CN1CCOCC1)c1ccc(F)cc1` (stereo not given) cannot be ordered by solubility kinetic: over 35.4 µg/mL for the first, over 39.9 µg/mL for the second.

First: O=C(Cc1ccccc1)N/N=C/c1cccnc1
Second: CC(C)C(=O)Nc1ccccc1Cc1ccccc1
The solubility kinetic of the first is higher: over 35.9 µg/mL for the first, 10.7 µg/mL (≈ 42.2 µM) for the second.

`Cc1ccc(NC(=O)C2CC(=O)N(Cc3ccco3)C2)cc1` (stereo not given) and `COCCCNC(=O)c1ccc(C2SCC(=O)N2Cc2ccco2)cc1` (stereo not given) are within 1.5-fold of each other in solubility kinetic: 39.7 µg/mL (≈ 133 µM) for the first, 52.1 µg/mL (≈ 139 µM) for the second.

Going from `Cc1cc(Br)cc2c1NC(=O)C2(O)CC(=O)c1ccco1` (stereo not given) to `Cc1ccc(C(=O)CCC(=O)Nc2ccccc2C)c(C)c1`, the solubility kinetic falls from 47.7 µg/mL (≈ 136 µM) to 1.3 µg/mL (≈ 4.4 µM) (37-fold).

`COc1ccc(C2c3ccc(O)cc3Oc3ncn(CCCO)c(=N)c32)cc1` (stereo not given) and `Br.COc1ccc(C(=O)CN2Cc3ccccc3C2=N)cc1` cannot be ordered by solubility kinetic: over 56.9 µg/mL for the first, over 54.2 µg/mL for the second.

First: C=CCNC(=O)C1CCN(c2cnccn2)CC1
Second: CC(NC(=O)C1CCCC1)c1ccc(Br)cc1 (stereo not given)
The solubility kinetic of the first is higher: over 36.9 µg/mL for the first, 33.4 µg/mL (≈ 113 µM) for the second.

Compared with `CNC(=O)c1cc(S(=O)(=O)NCc2ccncc2)ccc1OC`, `COc1ccc2oc(=O)c(C(=O)NCCc3ccc(OC)c(OC)c3)cc2c1` is lower in solubility kinetic: over 50.3 µg/mL for the first, under 0.8 µg/mL for the second.

Going from `CC(C)N(Cc1ccccc1)C(=O)CN1C(=O)NC2(CCOc3ccccc32)C1=O` (stereo not given) to `Clc1nc(-c2ccccc2)c2ccccc2n1`, the solubility kinetic falls from over 61.1 µg/mL to 17.6 µg/mL (≈ 73.1 µM).

Going from `C/C(=N\Nc1nc(C)cc(C)n1)c1ccc(C)o1` to `COC(=O)c1ccc(CO/N=C/c2ccc(OC)cc2)o1`, the solubility kinetic falls from over 36.6 µg/mL to 13.9 µg/mL (≈ 48 µM).

Going from `Cc1c(C(=O)N2CCC[C@H]2CO)oc2c(F)cccc12` to `O=C1CCC/C1=C/Nc1cccc(F)c1`, the solubility kinetic falls from 37 µg/mL (≈ 133 µM) to 23.6 µg/mL (≈ 115 µM) (1.6-fold).

Compared with `CCC(=O)Nc1ccc(C(=O)CSc2nc(N)cc(N)n2)cc1`, `CN(C)c1ccc(NC(=O)c2cnsn2)cc1` is 1.6-fold lower in solubility kinetic: 48.3 µg/mL (≈ 146 µM) for the first, 30.2 µg/mL (≈ 122 µM) for the second.

Compared with `CN(C)c1cc(-c2ccc(F)cc2)oc(=O)c1Cl`, `CC(C)OCCCNC(=O)Cc1ccc(F)cc1` is higher in solubility kinetic: 7.2 µg/mL (≈ 26.9 µM) for the first, over 38 µg/mL for the second.

`O=C1CC(=O)N(c2cccc(Br)c2)C(=O)N1` and `Cc1ccc(N=C2NC(=O)CS2)cc1C` are within 1.5-fold of each other in solubility kinetic: 39.2 µg/mL (≈ 138 µM) for the first, 32.7 µg/mL (≈ 148 µM) for the second.

`COc1ccc(C2(C(=O)Nc3ccc(C)cc3)CCOCC2)cc1` and `Cc1ccc(S(=O)(=O)Nc2cnc3ccccc3c2)cc1` cannot be ordered by solubility kinetic: over 48.8 µg/mL for the first, over 44.8 µg/mL for the second.

Compared with `O=[N+]([O-])c1ccccc1Nc1ccccc1`, `CC(=O)Nc1ccc(NC(=O)c2ccccc2Nc2ccccc2)cc1` is 4-fold higher in solubility kinetic: 1.1 µg/mL (≈ 5.13 µM) for the first, 4.4 µg/mL (≈ 12.7 µM) for the second.

First: Clc1ccc(Cn2ccc3ccccc32)cn1
Second: O=C(Cc1c(Cl)cccc1Cl)OCc1ccccn1
The solubility kinetic of the first is 1.5-fold lower: 26.4 µg/mL (≈ 109 µM) for the first, 40.1 µg/mL (≈ 135 µM) for the second.

Going from `O=c1c2ccccc2nc(-c2ccccc2)n1-c1ccccc1O` to `CC(=O)NNC(=O)c1[nH]c2ccc(Br)cc2c1-c1ccccc1`, the solubility kinetic rises from 38.3 µg/mL (≈ 122 µM) to over 55.8 µg/mL.

First: COC(=O)c1cc(Sc2c(Cl)cccc2Cl)ccn1
Second: O=C(Nc1cccc(C(F)(F)F)c1)c1scc2c1OCCO2
The solubility kinetic of the first is higher: 37 µg/mL (≈ 118 µM) for the first, under 0.7 µg/mL for the second.

`CC(=O)c1ccccc1NC(=O)CCN1C(=O)C2CCCCC2C1=O` (stereo not given) and `O=C(COC(=O)c1ccc(F)c(S(=O)(=O)N2CCOCC2)c1)NCc1ccc2c(c1)OCO2` cannot be ordered by solubility kinetic: over 51.4 µg/mL for the first, 53.8 µg/mL (≈ 112 µM) for the second.

`Cc1ccc(C)c(N2CN(CCC3=CCCCC3)CNC2=S)c1` and `Cc1cccc(NC2=NCCCS2)c1` cannot be ordered by solubility kinetic: 38.7 µg/mL (≈ 117 µM) for the first, over 30.9 µg/mL for the second.

Going from `CCOC(=O)c1sc(S(C)(=O)=O)c2c1CCc1conc1-2` to `C=CCn1c(C(C)C)nc2ccccc21.Cl`, the solubility kinetic rises from 4 µg/mL (≈ 12.2 µM) to over 35.5 µg/mL.

Compared with `O=C(Cc1ccccc1)c1c[nH]c(C(=O)C(Cl)(Cl)Cl)c1`, `N=C1c2ccccc2CN1c1ccc(F)c([N+](=O)[O-])c1` is higher in solubility kinetic: 28.1 µg/mL (≈ 85 µM) for the first, over 40.7 µg/mL for the second.
